US10835624B2, “Compounds for imaging Tau protein aggregates” (AC IMMUNE S.A., priority 2016, dated 2020)
Marks after values point to notes of the source that are not given here.

Legend:
MAO A = biological target: T1, MAO A (Homo sapiens, UniProt P21397); assay: MAO A FEH competition assay in human HC brain homogenate; format: binding; design: Low affinity to MAO A (IC50 in HC homogenate): key: −: poor; ∘: moderate; +: good; ++: very good; +++: excellent; conditions: for IC50: human healthy control brain homogenate, FEH competition
T1 construct: 20 μg of human brain homogenate (without AD pathology); from tissue; host or cells: human brain homogenate without AD pathology (healthy control)
T1 sequence (P21397 1-527): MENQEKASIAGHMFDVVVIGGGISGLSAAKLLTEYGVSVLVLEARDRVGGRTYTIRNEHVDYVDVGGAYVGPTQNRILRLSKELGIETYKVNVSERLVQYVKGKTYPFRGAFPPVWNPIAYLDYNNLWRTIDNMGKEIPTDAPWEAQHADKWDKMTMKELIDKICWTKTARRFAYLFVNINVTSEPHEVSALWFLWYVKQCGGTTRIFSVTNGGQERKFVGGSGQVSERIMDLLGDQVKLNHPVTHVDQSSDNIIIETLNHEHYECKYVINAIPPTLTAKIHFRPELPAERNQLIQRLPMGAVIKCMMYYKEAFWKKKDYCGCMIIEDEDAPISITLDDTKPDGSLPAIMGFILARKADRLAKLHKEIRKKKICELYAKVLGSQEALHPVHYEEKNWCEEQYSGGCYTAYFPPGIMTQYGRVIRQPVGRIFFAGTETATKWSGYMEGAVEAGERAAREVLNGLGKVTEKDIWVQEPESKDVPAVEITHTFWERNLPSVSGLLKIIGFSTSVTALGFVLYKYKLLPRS
Protocol: 20 μg of human brain homogenate (without AD pathology) was incubated with a dilution series of each test compound (1000 to 0.06 nM) in the presence of 800 Bq of ^18F-labeled MAO-A binder ([^18F]fluoroethyl harmine, FEH). The samples were shaken at 110 rpm for 45 min at 37° C. Samples were then filtered through GF/B 96 well filter plates and washed twice with 300 μL assay buffer (PBS containing 0.1% BSA and 2% DMSO). Thereafter, filter plates were sealed and a Fuji Film Imaging Plate (BAS-SR2025) was placed on top. The imaging plate was analyzed after overnight exposition using a Fuji Film BAS-5000. Non-specific signal was determined with samples containing ^18F-labeled FEH in the presence of assay buffer without brain substrate and competitor. […] The unblocked ^18F-labeled FEH signal was defined as total binding. IC50 values were calculated by Prism V6 (GraphPad) setting total binding to 100%.

MAO B = biological target: T2, MAO B (Homo sapiens, UniProt P27338); assay: MAO B 18F-fluoro deprenyl competition assay in human HC brain homogenate; format: binding; design: Low affinity to MAO B (IC50 in HC homogenate): key: −: poor; ∘: moderate; +: good; ++: very good; +++: excellent
T2 construct: 20 μg of human brain homogenate (without AD pathology); from tissue; host or cells: human brain homogenate without AD pathology (healthy control)
T2 sequence (P27338 1-520): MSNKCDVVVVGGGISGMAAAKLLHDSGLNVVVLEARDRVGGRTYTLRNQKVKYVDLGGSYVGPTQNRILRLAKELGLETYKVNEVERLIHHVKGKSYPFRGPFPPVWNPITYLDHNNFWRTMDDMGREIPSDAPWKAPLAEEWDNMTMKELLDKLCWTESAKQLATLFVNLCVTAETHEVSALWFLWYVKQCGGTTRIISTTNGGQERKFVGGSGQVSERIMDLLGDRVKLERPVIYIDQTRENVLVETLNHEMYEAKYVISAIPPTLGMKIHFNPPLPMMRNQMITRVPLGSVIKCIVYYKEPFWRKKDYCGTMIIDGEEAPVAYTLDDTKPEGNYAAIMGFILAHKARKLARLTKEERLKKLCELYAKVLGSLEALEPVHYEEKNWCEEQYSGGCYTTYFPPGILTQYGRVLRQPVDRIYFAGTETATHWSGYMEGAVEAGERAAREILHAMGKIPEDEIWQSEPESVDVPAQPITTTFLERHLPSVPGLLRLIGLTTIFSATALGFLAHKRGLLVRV
Protocol: The samples were shaken at 110 rpm for 45 min at 37° C. Samples were then filtered through GF/B 96 well filter plates and washed twice with 300 μL assay buffer (PBS containing 0.1% BSA and 2% DMSO). Thereafter, filter plates were sealed and a Fuji Film Imaging Plate (BAS-SR2025) was placed on top. The imaging plate was analyzed after overnight exposition using a Fuji Film BAS-5000. […] IC50 values were calculated by Prism V6 (GraphPad) setting total binding to 100%.

[1] = system: Tau (AD brain homogenate vs HC brain homogenate); assay: Tracer signal in AD brain homogenate vs healthy control brain homogenate; format: binding, human; design: High signal to noise (AD brain homogenate/HC brain homogenate) / High signal to noise (further homogenates): key to the marks not given beside the values; conditions: for Ratio of tracer signal in AD brain homogenates/signal in HC brain homogenates: further homogenates
[2] = system: Tau in human brain sections (AD, PSP, PiD, HC); assay: Autoradiography in human brain slices; format: binding
Protocol: 18 micron thick frozen human brain slices and 6 micron thick human FFPE brain slices were examined via autoradiography. Brain sections were equilibrated for at least 1 h in 1×PBS solution prior to use in the experiment. Each brain section was covered with a solution of the ^18F-labeled tracer (200 Bq/μl, 500 μl) in 1×PBS. For blocking experiments with the corresponding ^19F-compound, an excess of the blocking compound (10 μM) was mixed with the ^18F-compound. The brain sections were allowed to incubate with the tracer solution at room temperature for 1 h, drained afterwards and placed in a slide holder. The slides were then washed sequentially with 1×PBS for 1 min; 70% EtOH in 1×PBS for 2 min; 30% EtOH in 1×PBS for 2 min; and 1×PBS for 1 min. The slides were allowed to air-dry before being placed on Fuji imaging plates […] for overnight exposure. The imaging plates were scanned and the signal was measured using Fuji software to produce an autoradiographic image of the brain section.

Tau pathology = assay: Human imaging study (dynamic PET); format: in vivo
Protocol: In a clinical trial, subjects with AD or PSP as well as non-demented controls (NDC) underwent dynamic PET imaging for over 3 h following 370 MBq bolus injection of ^18F-3a.

[3] = system: Tau (AD brain vs mouse brain homogenate); assay: Tracer signal in AD brain vs mouse brain homogenate; format: binding, human / mouse; design: High signal to noise (AD brain/mouse brain homogenate): key: −: poor; ∘: moderate; +: good; ++: very good; +++: excellent
[4] = biological target: T3, Monoamine oxidase A (MAO A) (Homo sapiens, UniProt P21397); conditions: Vermeiren et al. 2015; cited from earlier work
T3 sequence (P21397 1-527): T1 sequence (P21397 1-527)

[5] = grade, non-radioactive derivatives

SMILES: [18F]c1ccc(-c2ccc3c(n2)[nH]c2ccncc23)cn1 [^18F-2]
- IC50 (MAO A): 100 nM
- IC50 (MAO B): > 1000 nM

SMILES: [18F]c1cc(-c2ccc3c(n2)[nH]c2ccncc23)ccn1 [^18F-3a]
- Fold higher signal to noise ratio than 18F-1 ([1]; AD brain homogenate vs HC brain homogenate): 5.2 fold
- Fold higher signal to noise ratio than 18F-1 ([1]; further AD brain homogenates vs HC brain homogenate): 8.2-13.5 fold
- Ratio of tracer signal in AD brain homogenates/signal in HC brain homogenates ([1]; first of 3 values): 14.0
- Ratio of tracer signal in AD brain homogenates/signal in HC brain homogenates ([1]; second of 3 values): 17.9
- Ratio of tracer signal in AD brain homogenates/signal in HC brain homogenates ([1]; third of 3 values): 33.8
- High signal to noise (further homogenates) ([1]; grade, 3 different AD brain homogenates): +++
- High signal to noise (AD brain homogenate/HC brain homogenate) ([1]; grade, 18F tracers): ++
- Autoradiography signal in PSP brain sections [2]: strong signal
- Autoradiography signal in PiD brain sections [2]: strong signal
- Autoradiography signal in healthy control (HC) sections [2]: no specific signal
- Autoradiography signal in AD brain sections ([2]; blockable with excess cold compound): strong punctated staining
- Binding to AD brain (Braak stage 1/3), autoradiography on human brain slices ([2]; grade, in house data): +++^a)
- Binding to AD brain (Braak stage 5/6), autoradiography on human brain slices ([2]; grade, in house data): +++^a)
- Binding to PSP, autoradiography on human brain slices ([2]; grade, in house data): +++^a)
- Binding to PiD, autoradiography on human brain slices ([2]; grade, in house data): +++^a)
- Fold higher MAO A IC50 than compound 18F-1 (MAO A; HC brain homogenate): 220 fold
- Fold higher MAO A IC50 than compound 18F-2 (MAO A; HC brain homogenate): 11 fold
- Low affinity to MAO A (IC50 in HC homogenate) (MAO A; [5]): +++
- IC50 (MAO A): 1100 nM
- IC50 (MAO B): > 1000 nM
- Fold higher MAO B IC50 than compound 18F-1 (MAO B; HC brain homogenate): > 5 fold
- Low affinity to MAO B (IC50 in HC homogenate) (MAO B; [5]): +++
- Brain uptake in human subjects (Tau pathology; 370 MBq bolus injection, PET): good
- Washout from non-target brain regions in human subjects (Tau pathology; 370 MBq bolus injection, PET): fast
- Uptake in temporal, parietal and frontal lobes (Tau pathology; AD subjects): focal asymmetric uptake
- Uptake in globus pallidus and substantia nigra (Tau pathology; PSP subjects): focal increased uptake
- Uptake in choroid plexus, basal ganglia, striatum, amygdala, meninges or other off-target regions (Tau pathology; non-demented controls (NDC)): no increased uptake
- Ratio of tracer signal in AD brain/signal in mouse brain homogenate ([3]; 18F tracers): 9.2^a
- Fold higher signal to noise ratio than 18F-1 ([3]; AD brain homogenate vs whole mouse brain homogenate): 4.2 fold
- High signal to noise (AD brain/mouse brain homogenate) ([3]; grade): ++

SMILES: [18F]c1ccc(-c2ccc3c(c2)[nH]c2ccncc23)cn1 [^18F-1]
- IC50 (MAO A): 5 nM
- IC50 (MAO B): 170 nM
- Kd [4]: 1.5 nM
